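Following 48 hours of exposure in 96-well plates, responses at five concentrations were used to interpolate endpoints linearly. GI50 marks 50% less growth.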 The source made the active and inactive calls. Cut-off read from the data, not from the text of the source: active = GI50 up to about 1.1 µM and inactive = higher.
What was measured:
Assay in all cases: growth of human tumour cells (NCI), 48 h
A549 = tested on: A549
ACHN = tested on: ACHN
COLO 205 = tested on: COLO 205
Hs-578T = tested on: Hs-578T
K562 = tested on: K562
MCF7 = tested on: MCF7
MDA-MB-231 = tested on: MDA-MB-231
MDA-N = tested on: MDA-N
NCI-H226 = tested on: NCI-H226
NCI/ADR-RES = tested on: NCI/ADR-RES
OVCAR-5 = tested on: OVCAR-5
PC-3 = tested on: PC-3
SF-539 = tested on: SF-539
SK-MEL-28 = tested on: SK-MEL-28
SW-620 = tested on: SW-620
TK-10 = tested on: TK-10
UO-31 = tested on: UO-31
EKVX = tested on: EKVX
HOP-92 = tested on: HOP-92
SR = tested on: SR

Measured: GI50

CCNC(=S)NNC(=O)C12CC3CC(CC(C3)C1)C2
inactive: A549 > 100 µM | ACHN > 100 µM | COLO 205 > 100 µM | Hs-578T > 100 µM | K562 > 100 µM | MCF7 > 100 µM | MDA-MB-231 > 100 µM | MDA-N > 100 µM | NCI-H226 > 100 µM | NCI/ADR-RES > 100 µM | OVCAR-5 > 100 µM | PC-3 > 100 µM | SF-539 > 100 µM | SK-MEL-28 > 100 µM | SW-620 > 100 µM | TK-10 > 100 µM | UO-31 > 100 µM

O=C(O)CCSCc1ccccc1
inactive: A549 > 100 µM | ACHN > 100 µM | COLO 205 > 100 µM | EKVX > 100 µM | Hs-578T > 100 µM | K562 > 100 µM | MCF7 > 100 µM | MDA-MB-231 > 100 µM | MDA-N > 100 µM | NCI-H226 > 100 µM | NCI/ADR-RES > 100 µM | OVCAR-5 > 100 µM | PC-3 > 100 µM | SF-539 > 100 µM | SK-MEL-28 > 100 µM | SW-620 > 100 µM | TK-10 > 100 µM | UO-31 > 100 µM

COC(C/C(=C/CO[Si](C(C)C)(C(C)C)C(C)C)C(=O)N(COCC[Si](C)(C)C)c1ccccc1I)OC
inactive: A549 37.2 µM | ACHN 20.6 µM | COLO 205 57.7 µM | HOP-92 42 µM | Hs-578T 48.2 µM | K562 > 100 µM | MDA-MB-231 > 100 µM | MDA-N 37.4 µM | NCI-H226 36 µM | NCI/ADR-RES > 100 µM | OVCAR-5 32.4 µM | PC-3 28.4 µM | SK-MEL-28 14 µM | SR > 100 µM | SW-620 33.5 µM | TK-10 63.1 µM | UO-31 55.3 µM

Cc1ccc(S(=O)(=O)NCCCCC(N)C(=O)O)cc1 (stereo unspecified)
inactive: A549 > 100 µM | ACHN > 100 µM | COLO 205 > 100 µM | EKVX > 100 µM | HOP-92 > 100 µM | Hs-578T > 100 µM | K562 > 100 µM | MCF7 > 100 µM | MDA-MB-231 > 100 µM | MDA-N > 100 µM | NCI-H226 > 100 µM | NCI/ADR-RES > 100 µM | OVCAR-5 > 100 µM | PC-3 > 100 µM | SF-539 > 100 µM | SK-MEL-28 > 100 µM | SW-620 > 100 µM | UO-31 > 100 µM

CCOC(=O)Cn1nnc2ccc(Nc3nc4ccccc4nc3C(=O)OCC)cc21
inactive: A549 > 100 µM | ACHN > 100 µM | COLO 205 > 100 µM | EKVX > 100 µM | HOP-92 56.2 µM | Hs-578T 33.5 µM | K562 > 100 µM | MCF7 > 100 µM | MDA-N > 100 µM | NCI-H226 > 100 µM | NCI/ADR-RES > 100 µM | OVCAR-5 > 100 µM | PC-3 > 100 µM | SF-539 31.3 µM | SK-MEL-28 > 100 µM | SR > 100 µM | SW-620 > 100 µM | TK-10 45.1 µM | UO-31 30.1 µM

COc1ccc(C2c3cc4c(cc3OC(NNS(=O)(=O)c3ccc(C)cc3)C2C)OCO4)cc1 (stereo unspecified)
inactive: A549 29.3 µM | ACHN 74 µM | COLO 205 36.3 µM | HOP-92 21.1 µM | Hs-578T 27.7 µM | K562 10.6 µM | MCF7 41.1 µM | MDA-MB-231 > 100 µM | MDA-N 58.3 µM | NCI-H226 > 100 µM | OVCAR-5 > 100 µM | PC-3 21 µM | SF-539 > 100 µM | SK-MEL-28 > 100 µM | SR 9.12 µM | SW-620 73.5 µM | TK-10 > 100 µM | UO-31 31.2 µM

O=c1[nH]c2c(S)nc(O)nc2n1-c1ccccc1
inactive: A549 > 100 µM | ACHN > 100 µM | EKVX > 100 µM | HOP-92 > 100 µM | Hs-578T > 100 µM | K562 > 100 µM | MDA-MB-231 > 100 µM | MDA-N > 100 µM | NCI-H226 > 100 µM | NCI/ADR-RES > 100 µM | OVCAR-5 > 100 µM | PC-3 > 100 µM | SK-MEL-28 > 100 µM | SR > 100 µM | SW-620 > 100 µM | TK-10 > 100 µM | UO-31 > 100 µM

Cc1ccc(C)n2c1nc1cc3ccccc3cc12
inactive: A549 28.6 µM | ACHN 29.6 µM | COLO 205 3.52 µM | EKVX 64.6 µM | HOP-92 8.75 µM | Hs-578T 60.3 µM | K562 47.2 µM | MCF7 1.14 µM | MDA-N 38.6 µM | NCI-H226 36 µM | NCI/ADR-RES 49.4 µM | OVCAR-5 74.3 µM | PC-3 32.4 µM | SF-539 30.7 µM | SK-MEL-28 45 µM | SR 43.4 µM | SW-620 33.1 µM | TK-10 15.5 µM | UO-31 14.9 µM

Cc1cccc2c(=O)c3cccc([C@@H](C)C(=O)O)c3oc12
inactive: A549 > 100 µM | ACHN > 100 µM | COLO 205 > 100 µM | EKVX > 100 µM | HOP-92 > 100 µM | Hs-578T > 100 µM | K562 > 100 µM | MDA-MB-231 > 100 µM | MDA-N > 100 µM | NCI-H226 > 100 µM | NCI/ADR-RES > 100 µM | PC-3 > 100 µM | SF-539 > 100 µM | SK-MEL-28 > 100 µM | SR > 100 µM | SW-620 > 100 µM | TK-10 > 100 µM | UO-31 > 100 µM

N#CCCC1(CCC#N)CCCCCCCCC(CCC#N)(CCC#N)C(=O)C1=O
inactive: A549 > 100 µM | ACHN > 100 µM | COLO 205 > 100 µM | EKVX > 100 µM | HOP-92 > 100 µM | Hs-578T 91 µM | K562 83.9 µM | MCF7 > 100 µM | MDA-N > 100 µM | NCI-H226 > 100 µM | NCI/ADR-RES > 100 µM | OVCAR-5 > 100 µM | PC-3 > 100 µM | SF-539 44.6 µM | SK-MEL-28 > 100 µM | SR > 100 µM | SW-620 > 100 µM | TK-10 > 100 µM

COC(=O)C1(C)C=CC(=O)C2(C)C1C(O)C1OC3CC(c4ccoc4)C(C)=C3C1(C)C2CC(=O)O (stereo unspecified)
inactive: A549 > 100 µM | ACHN > 100 µM | COLO 205 > 100 µM | EKVX > 100 µM | HOP-92 > 100 µM | Hs-578T > 100 µM | MCF7 > 100 µM | MDA-MB-231 > 100 µM | MDA-N > 100 µM | NCI/ADR-RES > 100 µM | OVCAR-5 > 100 µM | PC-3 > 100 µM | SF-539 > 100 µM | SK-MEL-28 > 100 µM | SW-620 > 100 µM | TK-10 > 100 µM | UO-31 > 100 µM
